Experimental data as given in patent US20260295053A1, “COMPOUNDS FOR DEGRADATION AND INHIBITION OF KRAS (G12D) PROTEIN” (Shenzhen Ionova Life Science Co., Ltd., priority 2023, published 2026).

Columns and labels:
AsPC-1 cells = assay: AsPC-1 cell proliferation assay (CellTiter Glo); format: cell-based; details: 6 days
Method in brief: (§1)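 AsPC-1 cells were seeded at 22,000/well for degradation and 3,500/well for proliferation. Compounds in 1:3 dilutions ([…] to 1.5 nM final) ran 24 h for degradation, read by in-cell immunofluorescence of KRAS G12D normalised to β-actin, and 6 days for proliferation (CellTiter Glo luminescence). DC50/IC50 came from dose-response fits.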

KRAS (G12D) = target: T1, KRAS (G12D) (Homo sapiens, UniProt P01116, G12D); assay: KRAS (G12D) cellular degradation assay in AsPC-1 cells; format: cell-based; details: 24 hours, antibody fluorescence (Odyssey CLX), DC50 half-maximal degradation concentration
T1 construct: in-cell western with KRAS G12D antibody after 24 h
Method in brief: as §1

T1 sequence (P01116 1-188 isoform P01116-2 G12D): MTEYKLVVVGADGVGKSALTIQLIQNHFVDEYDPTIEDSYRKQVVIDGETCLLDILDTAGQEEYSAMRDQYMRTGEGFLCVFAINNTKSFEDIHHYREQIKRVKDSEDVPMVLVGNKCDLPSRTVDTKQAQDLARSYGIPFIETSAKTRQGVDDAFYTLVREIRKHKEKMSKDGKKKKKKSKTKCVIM

Row | SMILES | IC50 (AsPC-1 cells; Homo sapiens, ASPC1, 144 h) [nM] | DC50 (KRAS (G12D)) [nM] | IC50 (AsPC-1 cells) [nM]
1 | CCn1nccc1-c1ccc([C@H](CO)NC(=O)[C@@H]2C[C@@H](O)CN2C(=O)[C@H](C(C)C)n2cc(-c3ccc(COc4c(-c5c(C)c(F)cc6[nH]ncc56)c(C5CC5)cc5c(N6C[C@@H]7C[C@H]6CN7)nc(OCC6(C(F)F)CC6)nc45)cc3)nn2)cc1 [Example 53, (2S,4R)-1-((2S)-2-(4-(4-(((4-((1S,4S)-2,5-diazabicyclo[2.2.1]heptan-2-yl)-6-cyclopropyl-2-((1-(difluoromethyl)cyclopropyl)methoxy)-7-(6-fluoro-5-methyl-1H-indazol-4-yl)quinazolin-8-yl)oxy)methyl)phenyl)-1H-1,2,3-triazol-1-yl)-3-methylbutanoyl)-N—((R)-1-(4-(1-ethyl-1H-pyrazol-5-yl)phenyl)-2-hydroxyethyl)-4-hydroxypyrrolidine-2-carboxamide] | < 10 | < 10 | –
2 | CCn1nccc1-c1ccc([C@@H](NC(=O)[C@@H]2C[C@@H](O)CN2C(=O)[C@H](C(C)C)n2cc(-c3ccc(COc4c(-c5c(C)c(F)cc6[nH]ncc56)c(C5CC5)cc5c(N6C[C@@H]7C[C@H]6CN7)nc(OC6CC7(COC7)C6)nc45)cc3)nn2)[C@H](C)O)cc1 [Example 100, (2S,4R)-1-((2S)-2-(4-(4-(((2-((2-oxaspiro[3.3]heptan-6-yl)oxy)-4-((1S,4S)-2,5-diazabicyclo[2.2.1]heptan-2-yl)-6-cyclopropyl-7-(6-fluoro-5-methyl-1H-indazol-4-yl)quinazolin-8-yl)oxy)methyl)phenyl)-1H-1,2,3-triazol-1-yl)-3-methylbutanoyl)-N-((1R,2S)-1-(4-(1-ethyl-1H-pyrazol-5-yl)phenyl)-2-hydroxypropyl)-4-hydroxypyrrolidine-2-carboxamide] | < 10 | < 10 | –
3 | CO[C@@H](C)COc1nc(N2CCNCC[C@H]2C)c2cc(C3CC3)c(-c3c(C)c(F)cc4[nH]ncc34)c(OCc3ccc(-c4cn([C@H](C(=O)N5C[C@H](O)C[C@H]5C(=O)N[C@@H](CO)c5ccc(-c6scnc6C)cc5)C(C)C)nn4)cc3)c2n1 [Example 189, (2S,4R)-1-((2S)-2-(4-(4-(((6-cyclopropyl-7-(6-fluoro-5-methyl-1H-indazol-4-yl)-2-((S)-2-methoxypropoxy)-4-((R)-7-methyl-1,4-diazepan-1-yl)quinazolin-8-yl)oxy)methyl)phenyl)-1H-1,2,3-triazol-1-yl)-3-methylbutanoyl)-4-hydroxy-N—((R)-2-hydroxy-1-(4-(4-methylthiazol-5-yl)phenyl)ethyl)pyrrolidine-2-carboxamide] | < 10 | < 10 | –
4 | CCn1nccc1-c1ccc([C@@H](NC(=O)[C@@H]2C[C@@H](O)CN2C(=O)[C@H](C(C)C)n2cc(-c3ccc(COc4c(-c5c(C)c(F)cc6[nH]ncc56)c(C5CC5)cc5c(N6C[C@@H]7C[C@H]6CN7)nc(OC[C@H](C)OC)nc45)cc3)nn2)[C@H](C)O)c2c1CC2 [Example 85, (2S,4R)-1-((2S)-2-(4-(4-(((4-((1S,4S)-2,5-diazabicyclo[2.2.1]heptan-2-yl)-6-cyclopropyl-7-(6-fluoro-5-methyl-1H-indazol-4-yl)-2-((S)-2-methoxypropoxy)quinazolin-8-yl)oxy)methyl)phenyl)-1H-1,2,3-triazol-1-yl)-3-methylbutanoyl)-N-((1R,2S)-1-(5-(1-ethyl-1H-pyrazol-5-yl)bicyclo[4.2.0]octa-1(6),2,4-trien-2-yl)-2-hydroxypropyl)-4-hydroxypyrrolidine-2-carboxamide] | < 10 | < 10 | –
5 | CO[C@@H](C)COc1nc(N2C[C@H]3C[C@@H]2CN3)c2cc(C3CC3)c(-c3c(C)c(F)cc4[nH]ncc34)c(OCc3ccc(-c4cn([C@H](C(=O)N5C[C@H](O)C[C@H]5C(=O)N[C@@H](C)c5ccc(-c6scnc6C)cc5)C(C)C)nn4)cc3)c2n1 (single isomer, unassigned) [Example 3B] | – | > 1000 | > 1000
6 | CCn1nccc1-c1ccc([C@H](CO)NC(=O)[C@@H]2C[C@@H](O)CN2C(=O)[C@H](C(C)C)n2cc(-c3ccc(COc4c(-c5c(C)c(F)cc6[nH]ncc56)c(C5CC5)cc5c(N6CCOCC(C)(O)C6)nc(OC[C@H](C)OC)nc45)cc3)nn2)cc1 (stereo partly drawn) [Example 161, (2S,4R)-1-((2S)-2-(4-(4-(((6-cyclopropyl-7-(6-fluoro-5-methyl-1H-indazol-4-yl)-4-(6-hydroxy-6-methyl-1,4-oxazepan-4-yl)-2-((S)-2-methoxypropoxy)quinazolin-8-yl)oxy)methyl)phenyl)-1H-1,2,3-triazol-1-yl)-3-methylbutanoyl)-N—((R)-1-(4-(1-ethyl-1H-pyrazol-5-yl)phenyl)-2-hydroxyethyl)-4-hydroxypyrrolidine-2-carboxamide] | < 10 | 10 to 100 | –

Second part, the molecule after the results:

Row | IC50 (AsPC-1 cells; Homo sapiens, ASPC1, 144 h) [nM] | DC50 (KRAS (G12D)) [nM] | IC50 (AsPC-1 cells) [nM] | SMILES
7 | < 10 | < 10 | – | CCn1nccc1-c1ccc([C@H](CO)NC(=O)[C@@H]2C[C@@H](O)CN2C(=O)[C@H](C(C)C)n2cc(-c3ccc(COc4c(-c5c(C)c(F)cc6[nH]ncc56)c(C5CC5)cc5c(N(C)[C@@H]6CCNC6)nc(OC[C@H](C)OC)nc45)cc3)nn2)c2c1CC2 [Example 192, (2S,4R)-1-((2S)-2-(4-(4-(((6-cyclopropyl-7-(6-fluoro-5-methyl-1H-indazol-4-yl)-2-((S)-2-methoxypropoxy)-4-(methyl((R)-pyrrolidin-3-yl)amino)quinazolin-8-yl)oxy)methyl)phenyl)-1H-1,2,3-triazol-1-yl)-3-methylbutanoyl)-N—((R)-1-(5-(1-ethyl-1H-pyrazol-5-yl)bicyclo[4.2.0]octa-1(6),2,4-trien-2-yl)-2-hydroxyethyl)-4-hydroxypyrrolidine-2-carboxamide]
8 | < 10 | < 10 | – | CCn1nccc1-c1ccc([C@H](CO)NC(=O)[C@@H]2C[C@@H](O)CN2C(=O)[C@H](C(C)C)n2cc(-c3ccc(COc4c(-c5c(C)c(F)cc6[nH]ncc56)c(C5CC5)cc5c(N6CCCNCC6)nc(OC[C@H](C)OC)nc45)cc3)nn2)cc1 [Example 107, (2S,4R)-1-((2S)-2-(4-(4-(((6-cyclopropyl-4-(1,4-diazepan-1-yl)-7-(6-fluoro-5-methyl-1H-indazol-4-yl)-2-((S)-2-methoxypropoxy)quinazolin-8-yl)oxy)methyl)phenyl)-1H-1,2,3-triazol-1-yl)-3-methylbutanoyl)-N—((R)-1-(4-(1-ethyl-1H-pyrazol-5-yl)phenyl)-2-hydroxyethyl)-4-hydroxypyrrolidine-2-carboxamide]
9 | < 10 | < 10 | – | Cc1ncsc1-c1ccc([C@@H](NC(=O)[C@@H]2C[C@@H](O)CN2C(=O)[C@H](C(C)C)n2cc(-c3ccc(COc4c(-c5c(C)c(F)cc6[nH]ncc56)c(C5CC5)cc5c(N6C[C@@H]7C[C@H]6CN7)nc(OC6CC7COCC7C6)nc45)cc3)nn2)[C@H](C)O)cc1 (stereo partly drawn) [Example 132, (2S,4R)-1-((2S)-2-(4-(4-(((4-((1S,4S)-2,5-diazabicyclo[2.2.1]heptan-2-yl)-6-cyclopropyl-7-(6-fluoro-5-methyl-1H-indazol-4-yl)-2-((hexahydro-1H-cyclopenta[c]furan-5-yl)oxy)quinazolin-8-yl)oxy)methyl)phenyl)-1H-1,2,3-triazol-1-yl)-3-methylbutanoyl)-4-hydroxy-N-((1R,2S)-2-hydroxy-1-(4-(4-methylthiazol-5-yl)phenyl)propyl)pyrrolidine-2-carboxamide]
10 | < 10 | < 10 | – | CO[C@@H](C)COc1nc(N2CCCNCC2)c2cc(C3CC3)c(-c3c(C)c(F)cc4[nH]ncc34)c(OCc3ccc(-c4cn([C@H](C(=O)N5C[C@H](O)C[C@H]5C(=O)N[C@H](c5ccc(-c6scnc6C)cc5)[C@H](C)O)C(C)C)nn4)cc3)c2n1 [Example 157, (2S,4R)-1-((2S)-2-(4-(4-(((6-cyclopropyl-4-(1,4-diazepan-1-yl)-7-(6-fluoro-5-methyl-1H-indazol-4-yl)-2-((S)-2-methoxypropoxy)quinazolin-8-yl)oxy)methyl)phenyl)-1H-1,2,3-triazol-1-yl)-3-methylbutanoyl)-4-hydroxy-N-((1R,2S)-2-hydroxy-1-(4-(4-methylthiazol-5-yl)phenyl)propyl)pyrrolidine-2-carboxamide]
11 | < 10 | < 10 | – | CCn1nccc1-c1ccc([C@H](CO)NC(=O)[C@@H]2C[C@@H](O)CN2C(=O)[C@H](C(C)C)n2cc(-c3ccc(COc4c(-c5c(C)c(F)cc6[nH]ncc56)c(C5CC5)cc5c(N6CCNCC[C@H]6C)nc(OC[C@H](C)OC)nc45)cc3)nn2)cc1 [Example 154, (2S,4R)-1-((2S)-2-(4-(4-(((6-cyclopropyl-7-(6-fluoro-5-methyl-1H-indazol-4-yl)-2-((S)-2-methoxypropoxy)-4-((R)-7-methyl-1,4-diazepan-1-yl)quinazolin-8-yl)oxy)methyl)phenyl)-1H-1,2,3-triazol-1-yl)-3-methylbutanoyl)-N—((R)-1-(4-(1-ethyl-1H-pyrazol-5-yl)phenyl)-2-hydroxyethyl)-4-hydroxypyrrolidine-2-carboxamide]
12 | < 10 | < 10 | – | CCn1nccc1-c1ccc([C@H](CC(=O)NC)NC(=O)[C@@H]2C[C@@H](O)CN2C(=O)[C@H](C(C)C)n2cc(-c3ccc(COc4c(-c5c(C)c(F)cc6[nH]ncc56)c(C5CC5)cc5c(N6C[C@@H]7C[C@H]6CN7)nc(OC[C@H](C)OC)nc45)cc3)nn2)cc1 [Example 55, (2S,4R)-1-((2S)-2-(4-(4-(((4-((1S,4S)-2,5-diazabicyclo[2.2.1]heptan-2-yl)-6-cyclopropyl-7-(6-fluoro-5-methyl-1H-indazol-4-yl)-2-((S)-2-methoxypropoxy)quinazolin-8-yl)oxy)methyl)phenyl)-1H-1,2,3-triazol-1-yl)-3-methylbutanoyl)-N—((S)-1-(4-(1-ethyl-1H-pyrazol-5-yl)phenyl)-3-(methylamino)-3-oxopropyl)-4-hydroxypyrrolidine-2-carboxamide]
